Experimental data as given in patent publication US20220362174A1, “Use of R-enantiomer Beta2-agonists for prevent and treatment of pulmonary inflammation and inflammatory remodeling for reduced adverse effects” (priority 2019, published 2022).
Entries after “also recorded” stand apart in the source; their conditions may differ.

How the values were obtained:
[1] = system: LPS-induced RAW264.7 cells; assay: NO production (DAF-FM DA probe, Griess assay); type: cell-based
Protocol: (§1) Macrophages were treated without or with (R)/(S)-salbutamol for 1 h prior to LPS stimulation and subsequently incubated for 12 h. […] The fluorescence of the oxidized product (2′,7′-dichlorofluorescein, DCF) was assessed using an LSM710 Laser Scanning Confocal Microscope (Carl Zeiss, Jena, Germany). The concentration of NO in the culture supernatant was measured by assaying the concentrations of nitrite (a stable NO breakdown product) using the Griess assay (Beyotime, Shanghai, China), according to the manufacturer's instructions. The intracellular NO level was detected using the NO-sensitive fluorescence probe DAF-FM DA (Sigma, St. Louis, Mo., USA) (24). Cells were labeled with DAF-FM DA (10 μM) at 37° C. for 30 min and were gently washed three times with PBS. Fluorescence was detected using a LSM710 Laser Scanning Confocal Microscope (Scale bars, 100 μm) (Carl Zeiss, Jena, Germany).
(§2) In addition, the concentration of NO in the culture supernatant was measured by assaying the concentrations of nitrite (a stable NO breakdown product) using the Griess assay. […] To investigate (R)-salbutamol role on the level of iNOS, the mRNA and protein levels of iNOS were determined.

[2] = system: BALB/c mice; assay: Lung function measurements 6 hours after LPS (Buxco); type: in vivo
Protocol: Methods: Survival study: […] Treatment were given intraperitoneally for 3 consecutive days. […] The animals were monitored. Survival rate was then recorded every 12 h for 144 hours. The lung functions were measured with using Buxco system (Buxco Electronics, USA). After a brief acclimation to the chamber, the mice received an initial baseline challenge of saline. Measures were made at 6 hours after administration of LPS, including tidal volume and Penh which is an indication of airway resistance.

[3] = system: BALB/c mice; assay: Survival study after LPS challenge (sepsis); type: in vivo; settings: for Percent of death after LPS challenges, 24 h: Saline + LPS 36.4; for Percent of death after LPS challenges, 36 h: Saline + LPS 72.7; for Percent of death after LPS challenges, 48 h / Percent of death after LPS challenges, 72 h / Percent of death after LPS challenges, 144 h: Saline + LPS 90.9; for Percent of death after LPS challenges, 12 h: Saline + LPS 0; for rate of mortality/death after LPS challenge (in words): in comparison of LPS challenged group without pretreatment (mortality 90.9%)
Protocol: Treatment were given intraperitoneally for 3 consecutive days. One hour after the 3rd day treatments, LPS (15 mg/kg) was administered intraperitoneally. The animals were monitored. Survival rate was then recorded every 12 h for 144 hours.

[4] = system: LPS-induced RAW264.7 cells; assay: mRNA expression of TNF-α, IL-1β and MCP-1 by quantitative real-time PCR; type: cell-based; settings: pretreated prior to LPS
Protocol: as §1
To examine the mRNA expression of TNF-α, IL-1β and MCP-1, quantitative real-time PCR was performed. Consistent with the cytokine expression study, the mRNA expression of TNF-α was increased by 2.26-fold in the LPS-induced group compared to the control group (FIG. 8D). The mRNA expression of IL-1β and MCP-1 increased by 12.74-fold (FIG. 8E) and 3.1-fold, respectively, in the LPS-induced group compared to the control group (FIG. 8F).

[5] = system: LPS-induced macrophage RAW264.7 cells; assay: M1 macrophage cytokines (TNF-α, IL-1β, MCP-1) by ELISA; type: cell-based
Protocol: as §1
To confirm that M1 polarization was predominant over M2 polarization after stimulation with LPS, the levels of typical M1 macrophage cytokines (i.e., TNF-α, IL-1β and MCP-1) were quantified using ELISA; these cytokines are mainly synthesized by macrophages and play an important role in inflammatory diseases (35,36). This invention disclosed that TNF-α […] from 2.62-fold to 0.75-fold of control levels following LPS stimulation (FIG. 8A). IL-1β is a hallmark of many chronic inflammatory diseases in humans and is reportedly associated with acute phase reactions (35,37). […] We conclude that LPS is likely to lead to M1 polarization but not M2 polarization.

[6] = system: iNOS; assay: iNOS mRNA and protein levels; type: cell-based
Protocol: as §2

[7] = system: OVA induced asthma mice; assay: Combination therapy of ipratropium with R- and S-salbutamol: lung histopathology (Masson, PAS); type: in vivo
Protocol: Left lung tissue was obtained for histopathology and fixed in 10% formalin for 24 h, followed by paraffin-embedded and then were sectioned at 4 μm for routine staining with hematoxylin and eosin (H&E, Solarbio, Beijing, China), or with periodic acid-Schiff (PAS, Solarbio, Beijing, China), or submitted to Masson's trichrome staining (Baso, Zhuhai, China). Images of the stained lung sections were obtained by an Axisplus image-capturing system (Zeiss, Germany) and then a minimum of 3 bronchi (luminal diameter, 150-500 μm) were analyzed per mice for various parameters using an image analyzing computer system (IPP) by pathologists blinded to grouping. Histological score, airway smooth muscle thickness, PAS score (goblet cells hyperplasia), and collagen deposition were evaluated by a semi-quantitative scoring method.
Methods used were similar as mentioned above. Nebulized aerosol of saline, Methacholine 2 mg/ml (low dose) or 10 mg/ml (high dose) were given via inhalation to OVA induced asthma mice.

[8] = system: RAW264.7 cells; assay: Cell viability, CCK-8 assay; type: cell-based; settings: up to 100 μM, with or without LPS (100 ng/mL)
[9] = system: NF-κB and MARK pathways; assay: NF-κB and MARK pathways, cytokines and ROS in LPS sepsis
Text: LPS interacts with pathogen recognition receptors such as TLRs would also activate NF-κB and MARK pathways, which would further lead to an over-production of cytokines. […] The “cytokine storm” in sepsis involves in excessive release of INFs, IL-1B, IL-2,4,6,10,12, TNFa and MCP etc.
In sepsis, there are also over productions of chemokines such as ROS. […] This invention disclosed the similar effects of other RS-racemic, S-enantiomer or R-enantiomer beta2 agonists including: salbutamol, bambuterol, vilanterol, clenterol, salmeterol, formoterol, trantinterol and Indacaterol and other β2 agonists.

SMILES: CC(C)(C)NC[C@H](O)c1ccc(O)c(CO)c1 [R-salbutamol, (R)-Salbutamol]
- production/levels of NO (in words) ([1]; LPS-induced cells): significantly decreased; also recorded: inhibited
- decrease of the level of DAF fluorescence (intracellular NO) ([1]; pretreated before LPS, LPS increased by 424% vs control): 2.68 fold
- decrease of NO2- expression (Griess assay, culture supernatant) ([1]; pretreatment before LPS, LPS increased 20.25-fold vs control): 2.28 fold
- deterioration of respiratory function induced by LPS (in words) [2]: restored
- Tidal volume ([2]; 0.1 mg/kg, LPS + saline 0.13 ± 0.03, Saline 0.22 ± 0.02): 0.17 ± 0.02 mL
- Penh ([2]; 0.1 mg/kg, LPS + saline 1.31 ± 0.40, Saline 0.54 ± 0.09): 0.68 ± 0.09
- Tidal volume ([2]; 0.5 mg/kg, LPS + saline 0.13 ± 0.03): 0.21 ± 0.02 mL
- Penh ([2]; 0.5 mg/kg, LPS + saline 1.31 ± 0.40): 0.53 ± 0.07
- Percent of death after LPS challenges, 24 h ([3]; 0.1 mg/kg + LPS): 20%
- Percent of death after LPS challenges, 36 h ([3]; 0.1 mg/kg + LPS): 20%
- Percent of death after LPS challenges, 48 h ([3]; 0.1 mg/kg + LPS): 40%
- Percent of death after LPS challenges, 72 h ([3]; 0.1 mg/kg + LPS): 40%
- Percent of death after LPS challenges, 144 h ([3]; 0.1 mg/kg + LPS): 40%
- Percent of death after LPS challenges, 12 h ([3]; 0.1 mg/kg i.p. 3 days + LPS 15 mg/kg): 0%
- Percent of death after LPS challenges, 12 h ([3]; 0.5 mg/kg + LPS): 0%
- Percent of death after LPS challenges, 24 h ([3]; 0.5 mg/kg + LPS): 0%
- Percent of death after LPS challenges, 36 h ([3]; 0.5 mg/kg + LPS): 0%
- Percent of death after LPS challenges, 48 h ([3]; 0.5 mg/kg + LPS): 0%
- Percent of death after LPS challenges, 72 h ([3]; 0.5 mg/kg + LPS): 0%
- Percent of death after LPS challenges, 144 h ([3]; 0.5 mg/kg + LPS): 0%
- Percent of death, 12 h ([3]; 0.5 mg/kg + saline (no LPS)): 0%
- Percent of death, 24 h ([3]; 0.5 mg/kg + saline (no LPS)): 0%
- Percent of death, 36 h ([3]; 0.5 mg/kg + saline (no LPS)): 0%
- Percent of death, 48 h ([3]; 0.5 mg/kg + saline (no LPS)): 0%
- Percent of death, 72 h ([3]; 0.5 mg/kg + saline (no LPS)): 0%
- Percent of death, 144 h ([3]; 0.5 mg/kg + saline (no LPS)): 0%
- rate of mortality/death after LPS challenge (in words) [3]: survived
- rate of mortality/death after LPS challenge (in words) ([3]; listed as (R)-salbutamol): greatly reduced or even diminished
- mRNA level of TNF-α ([4]; LPS alone 2.26-fold of control): significantly decreased
- mRNA level of MCP-1 ([4]; LPS alone 3.1-fold of control): significantly decreased
- mRNA level of IL-1β ([4]; LPS alone 12.74-fold of control): significantly decreased
- concentration of MCP-1 (ELISA) ([5]; LPS alone 1.588 ng/mL): 1.15 ng/mL
- IL-1β (ELISA) ([5]; LPS alone 2.24-fold): 1.12 fold of control levels
- TNF-α (ELISA) ([5]; LPS alone 2.62-fold): 0.75 fold of control levels
- release and expression of cytokines in LPS induced M1 macrophages (in words) ([5]; LPS challenge): inhibited the expression of cytokines
- iNOS protein levels ([6]; LPS+ (R)-salbutamol vs LPS): same changes
- iNOS mRNA level ([6]; pretreated plus LPS, vs LPS): decreased; also recorded: inhibited
- PAS staining: goblet cell hyperplasia, mucus over secretion, airway edema ([7]; vs OVA model): significant therapeutic benefit
- Masson staining: collagen deposition, wall thickness of bronchiole and vascular vessels ([7]; vs ova (model) group): significant therapeutic effects
- cell viability [8]: no changes in cell viability
- over production of inducible NO (iNO) and another ROS ([9]; LPS sepsis): significantly prevent and inhibit
- production or release of cytokines (cytokine storm) ([9]; sepsis): significantly reduced
